Laboratory results from ChEMBL document CHEMBL4376905, “Selective Estrogen Receptor Degraders for the Potential Treatment of Cancer” (ACS Med Chem Lett, 2020).
Values belong to the molecule of their own block, whether it stands above or below them.

Columns and labels:
[1] = target: T1, Estrogen receptor (Homo sapiens, UniProt P03372); test: Induction of ERalpha protein degradation in human MCF7 cells assessed as reduction in ERalpha protein levels incubated for 24 hrs by In-cell western assay; format: cell-based; details: for DC50: mcf7, read-out: IC50 (the source's name)
T1 sequence (P03372 whole entry): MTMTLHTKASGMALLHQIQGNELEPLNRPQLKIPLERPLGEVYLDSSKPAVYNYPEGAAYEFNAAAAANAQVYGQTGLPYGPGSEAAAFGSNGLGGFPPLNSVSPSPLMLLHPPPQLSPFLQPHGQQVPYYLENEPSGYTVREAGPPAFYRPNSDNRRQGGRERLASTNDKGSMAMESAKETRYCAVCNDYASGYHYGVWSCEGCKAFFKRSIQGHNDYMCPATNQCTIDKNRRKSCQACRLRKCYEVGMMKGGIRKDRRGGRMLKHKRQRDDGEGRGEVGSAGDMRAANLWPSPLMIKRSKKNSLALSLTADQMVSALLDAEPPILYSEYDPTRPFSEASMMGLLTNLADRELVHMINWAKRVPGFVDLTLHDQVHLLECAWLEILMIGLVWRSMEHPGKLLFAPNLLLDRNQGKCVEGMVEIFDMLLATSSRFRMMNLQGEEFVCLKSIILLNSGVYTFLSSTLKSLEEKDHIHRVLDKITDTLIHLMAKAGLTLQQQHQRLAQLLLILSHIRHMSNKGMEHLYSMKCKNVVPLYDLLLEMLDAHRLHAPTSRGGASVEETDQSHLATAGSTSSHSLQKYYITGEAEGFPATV

[2] = target: T2, Estrogen receptor (Homo sapiens) (UniProt P03372); test: Displacement of [3H]estradiol from full length human ERalpha by competitive radiometric binding assay relative to estradiol
T2 sequence (whole entry): T1 sequence (P03372 whole entry)

[3] = system: MCF7; test: Antiproliferative activity against human MCF7 cells assessed as reduction in cell viability incubated for 6 days by WST1 dye based assay; format: functional; details: MCF7, 144 h

DC50 [1]: 3 nM
SMILES: O=C(NCCCOc1ccc(C(=C2C3CC4CC(C3)CC2C4)c2ccc(O)cc2)cc1)C12CC3CC(CC(C3)C1)C2

RBA [2]: 37%
IC50 [3]: 9 nM
SMILES: O=C(NCCCCOc1ccc(C(=C2C3CC4CC(C3)CC2C4)c2ccc(O)cc2)cc1)[C@H]1C[C@@H]2C=C[C@H]1C2

IC50 [1]: 2 nM
SMILES: O=C(NCCCCOc1ccc(C(=C2C3CC4CC(C3)CC2C4)c2ccc(O)cc2)cc1)C12CC3CC(CC1C3)C2

DC50 [1]: 0.4 nM
SMILES: O=C(NCCCCOc1ccc(C(=C2C3CC4CC(C3)CC2C4)c2ccc(O)cc2)cc1)C1CCCCC1
